The record followed here is US20040072184A1 (priority 2003, published 2004).

Molecules are shown by their SMILES.

This assay concerns SGK2. The assay is classed as cell-based, human.

In the case of `C=C1[C@@H](O)[C@@H]2O[C@]3(CC[C@H](/C=C/[C@@H](C)[C@@H]4CC(C)=C[C@@]5(O[C@H](C[C@@](C)(O)C(=O)O)CC[C@H]5O)O4)O3)CC[C@H]2O[C@@H]1[C@@H](O)C[C@H](C)[C@H]1O[C@@]2(CCCCO2)CC[C@H]1C` [Okadaic Acid], the “CapK sub (CCPM1)” value is on record as 161553 CCPM1, the “No-Substrate (CCPM1)” value is 2078 CCPM1, the “PKB sub (CCPM1)” value is 132171 CCPM1 and the “SGK2 kinase activity (result in words)” value is “stimulated SGK2 kinase activity”.
In the same order, the values of `COC[C@@H]([C@H](O)[C@H](O)C(=O)NCC[C@H](C)c1nc(/C=C/C[C@@H]2O[C@]3(C[C@@H](O)[C@@H]2C)O[C@H]([C@H](C[C@H](O)[C@H](C)[C@H](O)[C@H](C)/C=C(C)/C(C)=C/C=C/C(C)=C\C#N)OC)[C@H](OP(=O)(O)O)C3(C)C)co1)N(C)C` [Calyculin A] are 59335 CCPM1, 0 CCPM1, 92540 CCPM1 and “stimulated SGK2 kinase activity”.
